Data as given in patent US20080318837A1, “Pharmaceutical Formation For Increased Epithelial Permeability of Glucose-Regulating Peptide” (priority 2003, published 2008).

Tests used:
[1] = system: ciliary motility; settings: cited from earlier work
[2] = intraduodenally administered to rats; cited from earlier work
[3] = system: aminopeptidases; settings: cited from earlier work
[4] = aqueous solution, physiologic pH; cited from earlier work
[5] = system: EpiAirway tracheal/bronchial epithelial cell membrane; assay: LDH cytotoxicity (cell death) assay, EpiAirway model; type: cell-based
Method: Fresh, cell-free media was used as a blank. 50 μl substrate solution (12 ml Assay Buffer added to a fresh bottle of Substrate Mix, made according to the kit) was added to each well and the plates were incubates for 30 min at RT in the dark.

[6] = system: EpiAirway tracheal/bronchial epithelial cell membrane; assay: Transepithelial electrical resistance (TEER/TER), EpiAirway model; type: cell-based; settings: Table 6 formulations, 2 mg/mL GLP-1
Method: Triplicate samples of each formulation and controls were evaluated using the EpiAirway System in vitro model tracheal/bronchial epithelial cell membrane inserts by MatTek Corp. (Ashland, Mass.), catalog #Air-100.
EpiAirway™ culture membranes were received the day before the experiments started. They were shipped in phenol red-free and hydrocortisone-free Dulbecco's Modified Eagle's Medium (DMEM). Each tissue insert was placed into a well of a 6 well plate containing 0.9 ml of serum free DMEM. The membranes were then cultured for 24 hrs at 37° C./5% CO2 to allow tissues to equilibrate. […]
TEER measurements were read using a Tissue Resistance Measurement Chamber connected to an Epithelial Voltohmeter with the electrode leads, both from World Precision Instruments. First, background TEER was read for each insert on the day the experiment began. After TEER was read, 1 ml fresh media was placed in the bottom of each well in a 6-well plate. […]
The electrodes and a tissue culture blank insert were equilibrated for at least 20 min in fresh media with the power off prior to checking calibration. The background resistance was measured with 1.5 ml media in the Endohm tissue chamber and 300 μl media in a blank Millicell-CM insert. […] For each TEER determination, 300 μl media was added to the insert followed by a 20 min incubation at RT before placement in the Endohm chamber to read TEER. […]

[7] = system: EpiAirway tracheal/bronchial epithelial cell membrane
Method: Triplicate samples of each formulation and controls were evaluated using the EpiAirway System in vitro model tracheal/bronchial epithelial cell membrane inserts by MatTek Corp. (Ashland, Mass.), catalog #Air-100. […] The epithelial cells are grown on porous membrane-bottomed cell culture inserts at an air-liquid interface, which results in differentiation of the cells to a highly polarized morphology. The apical surface is ciliated with a microvillous ultrastructure and the epithelium produces mucus (the presence of mucin has been confirmed by immunoblotting). The inserts have a diameter of 0.875 cm, providing a surface area of 0.6 cm^2. The cells are plated onto the inserts at the factory approximately three weeks before shipping.
EpiAirway™ culture membranes were received the day before the experiments started. They were shipped in phenol red-free and hydrocortisone-free Dulbecco's Modified Eagle's Medium (DMEM). […]
The cell viability of each tissue culture insert was tested by MTT assay. Cell viability was assessed using the MTT assay (MTT-100, MatTek kit). […] The optical density of the samples was measured at 550 nm on a μQuant optical density plate reader using KCJr software.
The MTT percentage was calculated by dividing the measured MTT value for each formulation by the MTT value of the control formulation multiplied by 100. […]

[8] = after feeding to rats; cited from earlier work

Question: For “2-alkyl-4-hydroxyquinolines [pyo compound]”, which “concentration producing ciliostasis / inhibiting ciliary motility” value [1] is on record?
Answer: 50 µg/mL

Question: Which “bioavailability increase with 1% (w/v) polycarbophil vs aqueous solution” value [2] does the source give for “9-desglycinamide, 8-arginine vasopressin [DGAVP]” here?
Answer: 3-5 fold

Question: With `CC(C)CC(N)B(O)O` (stereo not shown) [boro-leucine] as the compound, how does the “enzyme inhibition, times more effective than bestatin” value [3] read?
Answer: more than 100 times

Question: What about the “enzyme inhibition, times more effective than puromycin” value [3] of the same compound?
Answer: more than 1000 times

Question: With `CCN(CC)/[N+]([O-])=N/O.CCNCC` [diethylamine/NO] as the compound, how does the “NO release rate (time)” value [4] read?
Answer: < 3 min

Question: With `NCCN(CCN)/[N+]([O-])=N/O` [diethylenetriamine/NO] as the compound, how does the “NO release rate (time)” value [4] read?
Answer: approximately 20 hours

Question: Which “% LDH” value [5] does the source give for “Octylphenolpoly(ethyleneglycolether)x [LDH Control]” here?
Answer: 100%

Question: What about the “% TEER Reduction” value [6] of the same compound?
Answer: 100%

Question: What about the “% MTT” value [7] of the same compound?
Answer: 1%

Question: With Phaseolus vulgaris hemagglutinin as the compound, how does the oral bioavailability [8] read?
Answer: more than 10%
